According to patent publication US20200385396A1, “Compond for treatment or prevention of obesity or diseases related to obesity, and application thereof” (SHANGHAI INSTITUTES FOR BIOLOGICAL SCIENCES, CHINESE …, priority 2017, published 2020):

Columns and labels:
[1] = test system: Wnt signal; experiment: TOPFlash reporter gene activity test in HEK293T cells; format: cell-based
Protocol: The HEK293T cells used for the measurement of reporter gene activity were plated at 20 hours before transfection and cultured to about 50% coverage for the transfection. The transfection method was as described above. For HEK293T cells, transfection was performed according to 20 ng TOPFlash, 20 ng GFP and 460 ng lacZ per well, and Wnt3a or Nesfatin-1/NUCB2 protein was added at 18 hours after transfection to stimulate for 6-8 hours, and the cell was lysed with Boehringer Mannheim Luciferase Assay Kit (200 μl/well) for 15 minutes, 50 μl lysate was added in the fluorometer BIO-TEK Synergy2 (Gene Company Limited) to measure the GFP fluorescence intensity in the cell lysate as an internal standard, and then 20 μl luciferase substrate (Roche) was added for the reaction, the luciferase activity was detected in the chemiluminescence channel, and finally the GFP reading was used as an internal standard for homogenization.
We focus on the three small molecules HLY72, HLY103, and HSS49A (FIG. 3a). […] So that the first biochemical experiment design is: whether these three small molecules can compete for the binding of HLY179 to NUCB2 protein.

[2] = test system: high-fat diet obese mice; experiment: Fat and muscle content (magnetic resonance) of high-fat diet obese mice; format: in vivo, mouse
Protocol: Mice were intraperitoneally injected with DMSO or HLY72 (dissolved in DMSO) 25 μL within 2 hours before turning off the lamp. During the intragastric experiment, the high concentration of HLY72 dissolved in DMSO was dissolved in 10% cyclodextrin, and the total volume was 100 μL Volume by gavage, so that the final concentration of DMSO was less than 10%. The diet was weighed at the 3rd hour, the 6th hour, the 12th hour, and the 24th hour respectively after the lights out. The corresponding mouse body weight was also weighed at the same time before the daily administration. The fat content of mice was measured with the magnetic resonance fat content measuring instrument of the animal platform in SIBCB.
In the experiment, high-fat diets were used to feed obese mice weighing about 40 grams for 22 weeks, according to the way used in the previous 3 courses.

[3] = test system: mice fed with high-fat diet; experiment: Paired feeding experiment in metabolic cage; format: in vivo, mouse; conditions: 20 mg/kg
Protocol: Mice fed with high-fat diet (8 mice per group) are placed in a metabolic cage for 3 days and injected with 20 mg/kg of HLY72 or DMSO once a day. Half of the mice in the DMSO group are paired with the HLY72 group. The average daily food intake (A), energy dissipation (B), respiratory exchange rate (C), physical activity (D) (E) of the three groups of mice after the three-day metabolic cage experiment is completed, the weight of the three groups of mice.
Before starting the metabolic cage experiment, the mice were fed in a single cage for 1 week. After a one-week single cage adaptation period, three days before the start of the small molecule compound injection, the mice were injected with 25 μL of DMSO within 2 hours before turning off the lights every afternoon, allowing them to adapt to the injection for 3 days. After 3 days of injection, the acclimated mice were put into the metabolic cage. Starting from the same day, 25 μL of DMSO and HLY72 (20 mg/kg) were injected within 2 hours before turning off the lights for 3 consecutive days.
Next, the HLY72 injection group and their paired feeding group are compared. The DMSO-injected mice were divided into two groups. The first group was free to get enough food, while the other group was provided the same amount of food as the HLY72 group daily. […] Compared with the DMSO group, the energy expenditure of the HLY72 group and its paired feeding group are decreased day and night. There is no difference in energy expenditure between the HLY72 group and its paired feeding group during the day and night (FIG. 14b).

## C=Cc1cccc2c1N(C)Cc1cc3c(cc1-2)OCO3 [HLY72]
[1]
  activity of Wnt signal activation: none of them have the activity of Wnt signal activation
[2]; obese mice about 40 g, high-fat diet 22 weeks, 20 mg/kg courses of injection
  weight of mice: significantly reduce
[2]; obese mice, 20 mg/kg courses
  increase of the proportion of muscle: about 9 percentage points
[2]; obese mice, MRI fat content measuring instrument, 20 mg/kg courses
  fat content: significantly reduced
[3]
  body weight, difference to paired feeding group: no significant difference
  physical activity compared with the DMSO group and the paired feeding group: significantly reduced
[3]; after three-day metabolic cage
  body weight: decreased significantly
[3]; day and night
  energy expenditure compared with the DMSO group: decreased
  energy expenditure, difference to paired feeding group: no difference
[3]; night and day
  respiratory exchange rates compared with the paired feeding group and the DMSO group: significantly reduced
